Laboratory results from patent US12570606B2, “Myeloperoxidase imaging agents” (The General Hospital Corporation, priority 2016, dated 2026).
Where a name gives a salt, the structure may show the parent alone. Read-outs that look alike come from different tables or passages of the source. Values belong to the molecule of their own block, whether it stands above or below them.

What was measured:
[1] = Solubility of the hydrochloric acid salt; assay type: physicochemical; settings: hydrochloric acid salt after Boc de-protection with 1M HCl
[2] = target: T1, MPO (Homo sapiens, UniProt P05164); experiment: In vitro color change (oligomerization) with MPO; assay type: biochemical; settings: 2 mM, 37° C., 1 hr
T1 sequence (P05164 49-745): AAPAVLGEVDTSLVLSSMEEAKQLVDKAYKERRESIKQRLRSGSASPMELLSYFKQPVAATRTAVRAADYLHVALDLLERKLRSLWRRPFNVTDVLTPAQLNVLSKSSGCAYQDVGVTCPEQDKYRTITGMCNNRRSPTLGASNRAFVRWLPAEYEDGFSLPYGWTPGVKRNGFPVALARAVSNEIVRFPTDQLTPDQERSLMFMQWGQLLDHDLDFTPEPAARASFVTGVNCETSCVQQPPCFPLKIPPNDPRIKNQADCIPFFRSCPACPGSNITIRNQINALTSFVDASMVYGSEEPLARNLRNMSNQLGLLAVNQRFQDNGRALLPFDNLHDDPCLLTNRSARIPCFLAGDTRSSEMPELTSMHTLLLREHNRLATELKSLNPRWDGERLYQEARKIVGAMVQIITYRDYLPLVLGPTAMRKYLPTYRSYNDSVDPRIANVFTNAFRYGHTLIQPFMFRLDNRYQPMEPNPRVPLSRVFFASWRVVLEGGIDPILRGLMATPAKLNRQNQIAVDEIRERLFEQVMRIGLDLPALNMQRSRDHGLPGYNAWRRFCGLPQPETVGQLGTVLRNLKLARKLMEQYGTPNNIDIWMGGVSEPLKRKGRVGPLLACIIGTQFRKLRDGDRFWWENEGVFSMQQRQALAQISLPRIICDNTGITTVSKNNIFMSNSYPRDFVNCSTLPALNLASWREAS
Procedure: (§1) Each vial contains 2 mM of ^19F compound 9 in PBS (150 uL, 5% DMSO) and the following agents, and was incubated at 37° C. for 1 hr: • Vial 1: control (2 mM 19F […] only) • Vial 2: Glucose (6 μL, 1M), GOX (4 μL, 1 mg/mL); • Vial 3: H2O2 (2 μL), HRP (horseradish peroxidase, 1 μL); • Vial 4: H2O2(2 μL), MPO (10 μL): • Vial 5: H2O2 (2 μL), MPO (10 μL);

[3] = system: HRP (horseradish peroxidase); experiment: In vitro color change (oligomerization) with horseradish peroxidase; assay type: biochemical; settings: Vial 3: H2O2, HRP; 2 mM, 37° C., 1 hr
Procedure: as §1

[4] = target: T1, MPO; settings: in vitro; cited from earlier work
[5] = target: T1, MPO; parameters: host or cells: transgenic mice overexpressing human MPO; settings: in vivo, transgenic mice with overexpression of human MPO; cited from earlier work
[6] = target: T2, purified human MPO (Homo sapiens, UniProt P05164); experiment: Fluorescence molecular tomography (FMT) of MPO embedded in matrigel, sensitivity; assay type: in vivo, mouse; settings: 2 nmol i.v. then SA-647, matrigel in thigh
T2 construct: purchased Lee Biosolutions, St. Louis, Mo
T2 sequence (P05164 49-745): T1 sequence (P05164 49-745)
Description: (§2) Four to ten weeks old female C57BL/6J or MPO-knockout mice (from Jackson Laboratories, Bar Harbor, Me.) were used for all animal experiments. Mice were fed biotin free diet for 5 days before imaging with fluorescence molecular tomography (FMT) or fluorescence […] imaging (FRI).
To validate sensitivity of the Compound 3, different concentrations of purified human MPO (Lee Biosolutions, St. Louis, Mo.) and glucose oxidase (GOX, as a H2O2 donor, Affymetrix, Santa Clara, Calif.) were embedded in a mixture of matrigel (BD Bioscience, San Jose, Calif.) and minimal essential medium (MEM, Corning, Corning, N.Y.), and injected 400 μL of this mixture subcutaneously into the ventral aspect of the thigh. After 30 min, 2 nmol of Compound 3 in 100 μL phosphate buffered saline (PBS) was injected intravenously. One hour later, 25 μL of streptavidin AlexaFluor-647 (2 mg/mL, SA-647, Invitrogen, Carlsbad, Calif.) was injected intravenously, and FMT was performed every 15 minutes for a total of 60 minutes. Mice were imaged on a dedicated FMT system (Perkin Elmer, Waltham, Mass.) at 635 nm excitation and 655 nm emission.

[7] = target: T1, MPO; experiment: Fluorescence reflectance imaging (FRI) of GOX/MPO/ABAH in matrigel, specificity; assay type: in vivo, mouse; settings: 2 nmol i.v. then SA-647
Description: as §2

[8] = system: MPO activity; experiment: Irritant contact dermatitis (PMA) in vivo FRI; parameters: species or system mouse
Procedure: Female C57Bl/6J (wildtype, Jackson laboratories, Bar Harbor, Me.) and MPO-knockout (KO, Jackson laboratories) mice were treated topically with 0.08 μmol Phorbol 12-myristate 13-acetate (PMA, Sigma, St. Louis, Mo.) on one hind-paw and with vehicle on the other to induce irritant contact dermatitis. This model is well described in the literature and triggers rapid inflammation with influx of neutrophils into the skin. 6 hours after induction, mice were injected intravenously with either 2 nmol of Compound 3 or the non-specific analogue, Compound 18. 1 hour later, 2.5 μg SA-647 was injected intravenously to bind to the biotinylated Compound 3. Mice underwent in vivo imaging using a dedicated in vivo FRI system as described above in Example 11.

[9] = target: T3, MPO activity (Mus musculus, UniProt P11247); experiment: Brain abscess (salmonella), ex vivo FRI of coronal brain slices; assay type: in vivo; settings: probe at 23 hours
T3 construct: from tissue; host or cells: C57Bl/6J mice: PMA-treated hind-paw, salmonella brain abscess (slices and frozen sections), S. pneumoniae cellulitis of the thigh
T3 sequence (P11247 139-718): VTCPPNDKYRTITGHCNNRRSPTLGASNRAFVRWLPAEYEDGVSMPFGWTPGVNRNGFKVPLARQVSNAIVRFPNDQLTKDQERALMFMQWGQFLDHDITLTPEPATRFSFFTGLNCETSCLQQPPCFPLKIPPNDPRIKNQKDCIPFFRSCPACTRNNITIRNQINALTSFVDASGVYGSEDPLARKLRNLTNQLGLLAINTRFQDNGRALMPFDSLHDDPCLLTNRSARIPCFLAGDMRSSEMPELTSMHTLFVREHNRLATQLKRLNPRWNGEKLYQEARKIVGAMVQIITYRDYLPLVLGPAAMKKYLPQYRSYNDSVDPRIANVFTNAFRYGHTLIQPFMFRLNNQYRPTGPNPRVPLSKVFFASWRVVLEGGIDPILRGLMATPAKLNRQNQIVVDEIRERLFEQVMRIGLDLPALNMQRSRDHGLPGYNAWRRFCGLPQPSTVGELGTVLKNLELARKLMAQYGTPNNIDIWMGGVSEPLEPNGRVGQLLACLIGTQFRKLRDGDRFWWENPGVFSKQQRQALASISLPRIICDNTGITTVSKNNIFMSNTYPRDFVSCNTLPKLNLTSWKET
Procedure: (§3) Female C57Bl/6J mice were then anesthetized and fixed in a stereotactic head frame (David Kopf Instruments, Tujunga, Calif.). 1-3×10^6 colony forming units (CFU) salmonella bacteria (ATCC #14028) were suspended in 2 μL PBS and slowly injected into the deep frontal white matter (2.0 mm lateral and 1.2 mm anterior to bregma) at a depth of 3.0 mm. 23 hours later, mice were injected intravenously with 2 nmol Compound 3 as above, followed by intravenous injection of SA-647. Mice were then anesthetized with Isoflurane and transcardially perfused with 20 mL of ice cold PBS. Brains were harvested and cut into 1 mm coronal slices using a brain slicer (Harvard Apparatus, Holliston, Mass.) and immediately underwent FRI as described above. Brains from mice injected with salmonella were also embedded in OCT (Sakura, Torrance, Calif.) and snap-frozen in chilled isopentane (Sigma) and stored at […] until sectioning. Serial 6 μm sections were cut on a cryostat (Thermo scientific). Sections were thawed at room temperature for 10-20 minutes and rehydrated in PBS for 10 minutes. Then sections were incubated in blocking buffer (1% horse serum in PBS) for 30 minutes at room temperature, and incubated with MPO specific probe diluted in incubation buffer (1% bovine serum albumin 1% normal donkey serum, 0.3% Triton X-100, and 0.01% sodium azide in PBS) overnight at 4° C. […]

[10] = target: T3, MPO activity; experiment: Staining of fresh-frozen ex vivo brain sections with Compound 3 and SA-647; settings: Compound 3 followed by SA-647
Procedure: as §3

[11] = target: T3, MPO activity; experiment: Bacterial cellulitis (Streptococcus pneumoniae), in vivo FRI of neutrophil extracellular traps
Procedure: Female C57Bl/6J mice were injected subcutaneously at the dorsal aspect of the thigh with 10^8 CFU of Streptococcus pneumonia (SPn, ATCC #6303) to induce bacterial cellulitis. 6 hours after induction, mice were injected intravenously with 2 nmol of […]. 1 hour later, 2.5 μg Strepavidin-AlexaFluor-647 were injected intravenously to bind to the biotinylated Compound 3. To distinguish neutrophil granule release (where MPO and other granule proteins are secreted into the phagosome or extracellular space) from NET formation (where chromatin strands with MPO are released by neutrophils), 1 μg of the membrane-impermeable DNA dye Sytox Green (Invitrogen) was injected intravenously at the same time. Mice then underwent in vivo imaging using a dedicated FRI system as described above in Example 11. AlexaFluor-647 bound to MPO-sensor was detected at 595-635 nm excitation and 675/50 nm emission. Sytox Green was detected at 460-490 nm excitation and 530/40 nm emission.

[12] = target: T4, MPO (Mus musculus, UniProt P11247); experiment: CNR of Compound 3 in dermatitis, CNS abscess and cellulitis models; assay type: in vivo; parameters: from tissue; settings: detection of dermatitis
T4 sequence (P11247 139-718): T3 sequence (P11247 139-718)

Solubility [1]: increased solubility
Molecule: CN(C)CCCC[C@H](NC(=O)[C@H](Cc1c[nH]c2ccc(O)cc12)NC(=O)Cc1c[nH]c2ccc(O)cc12)C(=O)NCCOCCOCC[18F] [Example 18, (S)-6-(dimethylamino)-N-(2-(2-(2-fluoro-^18F)ethoxy)ethoxy)ethyl)-2-((S)-3-(5-hydroxy-1H-indol-3-yl)-2-(2-(5-hydroxy-1H-indol-3-yl)acetamido)propanamido)hexanamide hydrochloric acid salt]

Color change ([2]; Vial 2: Glucose, GOX, no MPO): no color change
Color change ([2]; Vials 4 and 5: H2O2, MPO): turned to yellow or brown
Color change [3]: turned to yellow or brown
Molecule: O=C(Cc1c[nH]c2ccc(O)cc12)N[C@@H](Cc1c[nH]c2ccc(O)cc12)C(=O)NCCOCCOCCF [Compound 8, (S)—N-(2-(2-(2-fluoroethoxy)ethoxy)ethyl)-3-(5-hydroxy-1H-indol-3-yl)-2-(2-(5-hydroxy-1H-indol-3-yl)acetamido)propanamide]

Molecule: sulfonaphthoaminophenyl fluorescein [SNAPF]
CNR [4]: around 1.4
CNR [5]: ~1.6

Molecule: O=C(CCCC[C@@H]1SC[C@@H]2NC(=O)N[C@@H]21)N[C@@H](Cc1c[nH]c2ccc(O)cc12)C(=O)NCCc1c[nH]c2ccc(O)cc12 [Compound 3, N—((S)-3-(5-hydroxy-1H-indol-3-yl)-1-((2-(5-hydroxy-1H-indol-3-yl)ethyl)amino)-1-oxopropan-2-yl)-5-((3aS,4S,6aR)-2-oxohexahydro-1H-thieno[3,4-d]imidazol-4-yl)pentanamide]
FMT fluorescence signal versus MPO concentration [6]: linear increase in signal
FRI fluorescence signal in absence of both MPO and GOX [7]: no appreciable fluorescence
FRI fluorescence signal with MPO and GOX in matrigel [7]: increased fluorescent signal
FRI fluorescence signal with MPO but without GOX [7]: no fluorescence was detectible
Fluorescence intensity, PMA-treated hind-paw ([8]; MPO-KO mice): 36.9±9.8 RFU
Fluorescence intensity, vehicle-treated hind-paw ([8]; MPO-KO mice): 43.9±10.8 RFU
Fluorescence intensity, PMA-treated hind-paw ([8]; wildtype mice): 130.5±4.7 RFU
Fluorescence intensity, vehicle-treated hind-paw ([8]; wildtype mice): 34.4±8.6 RFU
Fluorescence intensity, contralateral hemisphere (mean value) [9]: 10972 RFU
Fluorescence intensity, ipsilateral hemisphere (mean value) [9]: 43242 RFU
Fluorescent signal on abscess and control sections [10]: increased fluorescent signal consistent with MPO activity in the ipsilateral hemisphere but not the contralateral hemisphere
Fluorescence signal, side injected with PBS ([11]; contralateral thigh): 49.4±15.5 RFUs
Fluorescence signal, side injected with SPn ([11]; thigh, 6 hours after induction): 212.5±22.9 RFU
CNR [12]: approximately 4
